Test results as given in patent US20250382344A1, “Soluble GLP1/GIP/NPY2 Receptor Triple Agonists” (Boehringer Ingelheim International GmH, priority 2024, published 2025).
Where two headings read alike, the source gives them in different places.

How the values were obtained:
hGLP1R = biological target: T1, hGLP1R (Homo sapiens, UniProt P43220); test: hGLP1R CreLuc assay in 0.5% and 100% plasma (HEK-293 CRE-luciferase reporter cells); format: cell-based; conditions: HEK-293 reporter cells
T1 construct: expressed in transfected cells; host or cells: HEK-293 CRE-luciferase reporter cells
T1 sequence (P43220 24-463): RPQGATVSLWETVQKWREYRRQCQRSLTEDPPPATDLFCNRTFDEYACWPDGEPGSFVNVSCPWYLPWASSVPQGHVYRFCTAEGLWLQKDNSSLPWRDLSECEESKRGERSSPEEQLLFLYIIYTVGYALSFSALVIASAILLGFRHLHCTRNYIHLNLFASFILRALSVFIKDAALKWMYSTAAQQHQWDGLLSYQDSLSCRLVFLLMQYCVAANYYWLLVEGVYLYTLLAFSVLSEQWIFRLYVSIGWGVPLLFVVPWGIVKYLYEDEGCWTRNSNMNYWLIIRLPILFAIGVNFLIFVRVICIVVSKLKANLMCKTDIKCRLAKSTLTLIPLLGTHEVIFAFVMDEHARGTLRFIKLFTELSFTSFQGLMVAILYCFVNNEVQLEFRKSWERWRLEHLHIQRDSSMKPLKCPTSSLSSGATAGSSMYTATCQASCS

hGIPR = biological target: T2, hGIPR (Homo sapiens, UniProt P48546); test: hGIPR CreLuc assay in 0.5% and 100% plasma (CHO CRE-luciferase reporter cells); format: cell-based
T2 construct: expressed in transfected cells; host or cells: CHO CRE-luciferase reporter cells
T2 sequence (P48546 22-466): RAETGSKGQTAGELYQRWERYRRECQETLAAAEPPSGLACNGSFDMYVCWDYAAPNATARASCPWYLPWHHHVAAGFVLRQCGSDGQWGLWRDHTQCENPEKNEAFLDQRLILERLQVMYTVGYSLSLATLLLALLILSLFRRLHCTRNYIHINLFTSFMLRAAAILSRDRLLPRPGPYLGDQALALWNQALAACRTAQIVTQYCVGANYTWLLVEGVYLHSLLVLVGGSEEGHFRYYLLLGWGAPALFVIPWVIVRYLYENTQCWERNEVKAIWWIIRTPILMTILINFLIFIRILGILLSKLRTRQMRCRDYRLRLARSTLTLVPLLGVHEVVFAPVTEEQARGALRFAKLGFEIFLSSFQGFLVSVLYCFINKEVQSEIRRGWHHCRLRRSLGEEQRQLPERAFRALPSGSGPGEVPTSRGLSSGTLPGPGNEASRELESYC

[1] = Solubility in 0.1 M phosphate buffer at pH 7; format: physicochemical; conditions: 0.1 M phosphate buffer at pH 7, 10 mg/mL final peptide concentration, shaking 2 hours at room temperature, peptides as TFA-salts; measured sample pH 6.5-7.0
[2] = 0.5% human plasma, read-out: hGLP1R 0.5% hP
[3] = 100% human plasma, read-out: hGLP1R 100% hP
[4] = 0.5% human plasma, read-out: hGIPR 0.5% hP

Row | SMILES | EC50 (hGLP1R; [2]) | EC50 (hGLP1R; [3]) | EC50 (hGIPR; [4]) | solubility at 2 h [1] | EC50 (hGIPR; 100% human plasma, read-out: hGIPR 100% hP)
1 | CC[C@H](C)[C@H](NC(=O)[C@H](CC(C)C)NC(=O)[C@H](Cc1c[nH]cn1)NC(=O)[C@H](CCCNC(=N)N)NC(=O)[C@@H](NC(=O)[C@H](Cc1ccccc1)NC(=O)[C@H](C)NC(=O)C(C)(C)NC(=O)[C@H](CCC(N)=O)NC(=O)[C@H](C)NC(=O)[C@H](CCC(N)=O)NC(=O)[C@H](CCC(N)=O)NC(=O)[C@H](CCC(=O)O)NC(=O)[C@H](CC(C)C)NC(=O)C(C)(C)NC(=O)[C@@H](NC(=O)[C@H](CO)NC(=O)[C@H](Cc1ccc(O)cc1)NC(=O)[C@H](CC(=O)O)NC(=O)[C@H](CO)NC(=O)[C@@H](NC(=O)[C@H](Cc1ccccc1)NC(=O)[C@@H](NC(=O)CNC(=O)[C@H](CCC(=O)O)NC(=O)C(C)(C)NC(=O)[C@@H](N)Cc1ccc(O)cc1)[C@@H](C)O)[C@@H](C)O)[C@@H](C)CC)C(C)C)C(=O)N[C@@H](CC(N)=O)C(=O)N[C@@H](CCCCNC(=O)CC[C@H](NC(=O)CC[C@H](NC(=O)CC[C@H](NC(=O)CC[C@H](NC(=O)CC[C@H](NC(=O)CCCCCCCCCCCCCCCCC(=O)O)C(=O)O)C(=O)O)C(=O)O)C(=O)O)C(=O)O)C(=O)NC(C)(C)C(=O)N[C@H](C(=O)N[C@@H](CCCNC(=N)N)C(=O)N[C@@H](CCC(N)=O)C(=O)N[C@@H](CCCNC(=N)N)C(=O)N[C@@H](Cc1ccc(O)cc1)C(N)=O)[C@@H](C)O [Compound 42, Y-Aib-E-G-T-F-T-S-D-Y-S-I-Aib-L-E-Q-Q-A-Q-Aib-A-F-V-R-H-L-I-N-K(1,3)-Aib-T-R-Q-R-Y-NH2.C18DA-gGlu-gGlu-gGlu-gGlu-gGlu(1,2)] | 0.9 nM | 14.5 nM | 0.2 nM | 4300 µg/mL | 
2 | CC[C@H](C)[C@H](NC(=O)[C@H](CC(C)C)NC(=O)[C@H](Cc1c[nH]cn1)NC(=O)[C@H](CCCNC(=N)N)NC(=O)[C@@H](NC(=O)[C@H](Cc1ccccc1)NC(=O)[C@H](C)NC(=O)C(C)(C)NC(=O)[C@H](CCC(N)=O)NC(=O)[C@H](C)NC(=O)[C@H](CCC(N)=O)NC(=O)[C@H](CCCCN)NC(=O)[C@H](CCC(=O)O)NC(=O)[C@H](CC(C)C)NC(=O)C(C)(C)NC(=O)[C@@H](NC(=O)[C@H](CO)NC(=O)[C@H](Cc1ccc(O)cc1)NC(=O)[C@H](CC(=O)O)NC(=O)[C@H](CO)NC(=O)[C@@H](NC(=O)[C@H](Cc1ccccc1)NC(=O)[C@@H](NC(=O)CNC(=O)[C@H](CCC(=O)O)NC(=O)C(C)(C)NC(=O)[C@@H](N)Cc1ccc(O)cc1)[C@@H](C)O)[C@@H](C)O)[C@@H](C)CC)C(C)C)C(=O)N[C@@H](CC(N)=O)C(=O)N[C@@H](CCCCNC(=O)[C@@H](N)CCCCNC(=O)CC[C@H](NC(=O)CC[C@H](NC(=O)CC[C@H](NC(=O)CC[C@H](NC(=O)CC[C@H](NC(=O)CC[C@H](NC(=O)CCCCCCCCCCCCCCCCC(=O)O)C(=O)O)C(=O)O)C(=O)O)C(=O)O)C(=O)O)C(=O)O)C(=O)NC(C)(C)C(=O)N[C@H](C(=O)N[C@@H](CCCNC(=N)N)C(=O)N[C@@H](CCC(N)=O)C(=O)N(C)[C@@H](CCCNC(=N)N)C(=O)N[C@@H](Cc1ccc(O)cc1)C(N)=O)[C@@H](C)O [Compound 43, Y-Aib-E-G-T-F-T-S-D-Y-S-I-Aib-L-E-K-Q-A-Q-Aib-A-F-V-R-H-L-I-N-K(1,3)-Aib-T-R-Q-NMeR-Y-NH2.C18DA-gGlu-gGlu-gGlu-gGlu-gGlu-gGlu-eLys(1,2)] | 0.6 nM | 3 nM | 0.1 nM | 4300 µg/mL | 2.8 nM
3 | CC[C@H](C)[C@H](NC(=O)[C@H](CC(C)C)NC(=O)[C@H](Cc1c[nH]cn1)NC(=O)[C@H](CCCNC(=N)N)NC(=O)[C@@H](NC(=O)[C@H](Cc1ccccc1)NC(=O)[C@H](C)NC(=O)C(C)(C)NC(=O)[C@H](CCC(N)=O)NC(=O)[C@H](C)NC(=O)[C@H](CCC(N)=O)NC(=O)[C@H](CCCCN)NC(=O)[C@H](CCC(=O)O)NC(=O)[C@H](CC(C)C)NC(=O)C(C)(C)NC(=O)[C@@H](NC(=O)[C@H](CO)NC(=O)[C@H](Cc1ccc(O)cc1)NC(=O)[C@H](CC(=O)O)NC(=O)[C@H](CO)NC(=O)[C@@H](NC(=O)[C@H](Cc1ccccc1)NC(=O)[C@@H](NC(=O)CNC(=O)[C@H](CCC(=O)O)NC(=O)C(C)(C)NC(=O)[C@@H](N)Cc1ccc(O)cc1)[C@@H](C)O)[C@@H](C)O)[C@@H](C)CC)C(C)C)C(=O)N[C@@H](CC(N)=O)C(=O)N[C@@H](CCCCNC(=O)CCCCCNC(=O)CCCCCNC(=O)CC[C@H](NC(=O)CC[C@H](NC(=O)CC[C@H](NC(=O)CC[C@H](NC(=O)CC[C@H](NC(=O)CCCCCCCCCCCCCCCCC(=O)O)C(=O)O)C(=O)O)C(=O)O)C(=O)O)C(=O)O)C(=O)NC(C)(C)C(=O)N[C@H](C(=O)N[C@@H](CCCNC(=N)N)C(=O)N[C@@H](CCC(N)=O)C(=O)N[C@@H](CCCNC(=N)N)C(=O)N[C@@H](Cc1ccc(O)cc1)C(N)=O)[C@@H](C)O [Compound 44, Y-Aib-E-G-T-F-T-S-D-Y-S-I-Aib-L-E-K-Q-A-Q-Aib-A-F-V-R-H-L-I-N-K(1,3)-Aib-T-R-Q-R-Y-NH2.C18DA-gGlu-gGlu-gGlu-gGlu-gGlu-AHX-AHX(1,2)] | 0.2 nM |  | 0.1 nM | 9800 µg/mL | 
4 | CC[C@H](C)[C@H](NC(=O)[C@H](CC(C)C)NC(=O)[C@H](Cc1c[nH]cn1)NC(=O)[C@H](CCCNC(=N)N)NC(=O)[C@@H](NC(=O)[C@H](Cc1ccccc1)NC(=O)[C@H](C)NC(=O)C(C)(C)NC(=O)[C@H](CCC(N)=O)NC(=O)[C@H](C)NC(=O)[C@H](CCC(N)=O)NC(=O)[C@H](CCC(=O)O)NC(=O)[C@H](CCC(=O)O)NC(=O)[C@H](CC(C)C)NC(=O)C(C)(C)NC(=O)[C@@H](NC(=O)[C@H](CO)NC(=O)[C@H](Cc1ccc(O)cc1)NC(=O)[C@H](CC(=O)O)NC(=O)[C@H](CO)NC(=O)[C@@H](NC(=O)[C@H](Cc1ccccc1)NC(=O)[C@@H](NC(=O)CNC(=O)[C@H](CCC(=O)O)NC(=O)C(C)(C)NC(=O)[C@@H](N)Cc1ccc(O)cc1)[C@@H](C)O)[C@@H](C)O)[C@@H](C)CC)C(C)C)C(=O)N[C@@H](CC(N)=O)C(=O)N[C@@H](CCCCNC(=O)[C@@H](N)CCCCNC(=O)CC[C@H](NC(=O)CC[C@H](NC(=O)CC[C@H](NC(=O)CC[C@H](NC(=O)CC[C@H](NC(=O)CCCCCCCCCCCCCCCCC(=O)O)C(=O)O)C(=O)O)C(=O)O)C(=O)O)C(=O)O)C(=O)NC(C)(C)C(=O)N[C@H](C(=O)N[C@@H](CCCNC(=N)N)C(=O)N[C@@H](CCC(N)=O)C(=O)N[C@@H](CCCNC(=N)N)C(=O)N[C@@H](Cc1ccc(O)cc1)C(N)=O)[C@@H](C)O [Compound 48, Y-Aib-E-G-T-F-T-S-D-Y-S-I-Aib-L-E-E-Q-A-Q-Aib-A-F-V-R-H-L-I-N-K(1,3)-Aib-T-R-Q-R-Y-NH2.C18DA-gGlu-gGlu-gGlu-gGlu-gGlu-eLys(1,2)] | 0.5 nM |  | 0.1 nM | 7700 µg/mL | 
5 | CC[C@H](C)[C@H](NC(=O)[C@H](CC(C)C)NC(=O)[C@H](Cc1c[nH]cn1)NC(=O)[C@H](CCCNC(=N)N)NC(=O)[C@@H](NC(=O)[C@H](Cc1ccccc1)NC(=O)[C@H](C)NC(=O)C(C)(C)NC(=O)[C@H](CCC(N)=O)NC(=O)[C@H](C)NC(=O)[C@H](CCC(N)=O)NC(=O)[C@H](CCCCN)NC(=O)[C@H](CCC(=O)O)NC(=O)[C@H](CC(C)C)NC(=O)[C@](C)(CC(C)C)NC(=O)[C@@H](NC(=O)[C@H](CO)NC(=O)[C@H](Cc1ccc(O)cc1)NC(=O)[C@H](CC(=O)O)NC(=O)[C@H](CO)NC(=O)[C@@H](NC(=O)[C@H](Cc1ccccc1)NC(=O)[C@@H](NC(=O)CNC(=O)[C@H](CCC(=O)O)NC(=O)C(C)(C)NC(=O)[C@@H](N)Cc1ccc(O)cc1)[C@@H](C)O)[C@@H](C)O)[C@@H](C)CC)C(C)C)C(=O)N[C@@H](CC(N)=O)C(=O)N[C@@H](CCCCNC(=O)CC[C@H](NC(=O)CC[C@H](NC(=O)CC[C@H](NC(=O)CC[C@H](NC(=O)CC[C@H](NC(=O)CC[C@H](NC(=O)CCCCCCCCCCCCCCCCCCC(=O)O)C(=O)O)C(=O)O)C(=O)O)C(=O)O)C(=O)O)C(=O)O)C(=O)NC(C)(C)C(=O)N[C@H](C(=O)N[C@@H](CCCNC(=N)N)C(=O)N[C@@H](CCC(N)=O)C(=O)N[C@@H](CCCNC(=N)N)C(=O)N[C@@H](Cc1ccc(O)cc1)C(N)=O)[C@@H](C)O [Compound 49, Y-Aib-E-G-T-F-T-S-D-Y-S-I-aMeL-L-E-K-Q-A-Q-Aib-A-F-V-R-H-L-I-N-K(1,3)-Aib-T-R-Q-R-Y-NH2.C20DA-gGlu-gGlu-gGlu-gGlu-gGlu-gGlu(1,2)] | 0.3 nM |  | 0.1 nM | 10000 µg/mL | 
